From ChEMBL document CHEMBL1152186, “Design, synthesis, and evaluation of orally active inhibitors of plasminogen activator inhibitor-1 (PAI-1) production” (Bioorg Med Chem Lett, 2008)
≈ marks a conversion by molar mass, not a printed value.

Tests used:
[1] = Metabolic stability in dog blood after 1 hr; assay type: ADME, tissue-based, Canis lupus familiaris; conditions: read-out: Stability
[2] = Solubility in water; assay type: physicochemical
[3] = species: Bos taurus; test: Inhibition of LPS-induced PAI1 production in BCAEC at 1 uM after 24 hrs relative to T-686; assay type: functional
[4] = system: Rattus norvegicus; test: Antithrombotic activity in rat venous thrombosis model assessed as decrease in thrombus weight at 3 mg/kg, po administered for 3 days after 2 hrs last dose; assay type: functional; design: scale not given: the % may be the effect or the level left
[5] = system: Rattus norvegicus; test: Toxicity in rat assessed as decrease in locomotor activity at 300 mg/kg, po; assay type: organism-based; design: dose 300 mg/kg, route oral; conditions: in vivo
[6] = species: Bos taurus; test: Inhibition of LPS-induced PAI1 production in BCAEC at 10 uM after 24 hrs relative to T-686; assay type: functional

SMILES | remaining at 1 h [1] | solubility [2] | Activity [3] | Activity [6] | other results
COC(=O)C(=C(/C)c1cc(OC)cc(OC)c1)/C(=C\c1ccncc1)C(N)=O | 88% | > 4000 µg/mL | 1.5 | – | –
COC(=O)C(=C(/C)c1cc(OC)cc(OC)c1)/C(=C\c1ccccc1)C(=O)Nn1cnnc1 | – | – | 0.6 | – | –
COC(=O)C(=C(/C)c1cc(OC)cc(OC)c1)/C(=C\c1ccccc1)C(=O)Nc1cccnc1 | 83% | > 2000 µg/mL | 2.2 | – | –
COC(=O)C(=C(/C)c1cc(OC)cc(OC)c1)/C(=C\c1ccccc1)C(=O)Nc1ncccn1 | – | – | 0.1 | – | –
COC(=O)C(=C(/C)c1cc(OC)cc(OC)c1)/C(=C\c1ccccc1)C(=O)O | – | – | 0.4 | – | –
COC(=O)C(=C(/C)c1cc(OC)cc(OC)c1)/C(=C\c1ccccc1)C(=O)NN1CCN(C)CC1 | 89% | > 4000 µg/mL | 1.5 | – | Activity [4]: 50%; Activity [5]: Non-toxic
COC(=O)C(=C/c1cc(OC)c(OC)c(OC)c1)/C(C(N)=O)=C(/C)c1ccccc1 | – | – | – | 0.2 | –
COc1cc(/C=C2/C(=O)NC(=O)/C2=C/c2ccccc2)cc(OC)c1OC | 79% | 9 µg/mL (≈ 0.0246 mM) | 1 | 1 | –
COC(=O)C(=C(/C)c1cc(OC)c(OC)c(OC)c1)/C(=C\c1ccccc1)C(N)=O | 96% | 106 µg/mL (≈ 0.258 mM) | 1.5 | 1 | –
COC(=O)C(=C(/C)c1cc(OC)cc(OC)c1)/C(=C\c1ccccc1)C(=O)NC1CCN(C)CC1 | – | – | 0.8 | – | –
COC(=O)C(=C(/C)c1cc(OC)cc(OC)c1)/C(=C\c1ccccc1)C(=O)N1CCN(C)CC1 | – | – | 0.3 | – | –
COC(=O)C(=C(/C)c1cc(OC)cc(OC)c1)/C(=C\c1ccccc1)C(=O)Nc1cccc2cccnc12 | – | – | 0.4 | – | –
COC(=O)C(=C/c1cc(OC)c(OC)c(OC)c1)/C(=C/c1ccccc1)C(N)=O | – | – | – | 0.7 | –
COC(=O)C(=C(/C)c1cc(OC)cc(OC)c1)/C(=C\c1ccccc1)C(=O)Nc1ccncc1 | 87% | > 3000 µg/mL | 1.8 | – | Activity [4]: 58%; Activity [5]: Toxic
COC(=O)C(=C(/C)c1cc(OC)cc(OC)c1)/C(=C\c1ccccc1)C(=O)NCc1ccncc1 | 76% | > 2000 µg/mL | 2.1 | – | –
COC(=O)C(=C(/C)c1cc(OC)cc(OC)c1)/C(=C\c1ccccc1)C(=O)Nc1nnn[nH]1 | – | – | 0.1 | – | –
COC(=O)C(=C\c1cc(OC)c(OC)c(OC)c1)/C(=C\c1ccccc1)C(N)=O | 75% | – | – | 0.7 | –
COC(=O)C(=C/c1cc(OC)c(OC)c(OC)c1)/C(C(N)=O)=C(\C)c1ccccc1 | – | – | – | 0.3 | –
COC(=O)C(=C(/C)c1cc(OC)cc(OC)c1)/C(=C\c1cccnc1)C(N)=O | – | – | 0.8 | – | –
COC(=O)C(=C(/C)c1cc(OC)cc(OC)c1)/C(=C\c1ccccc1)C(=O)NCc1cccnc1 | 87% | 1600 µg/mL (≈ 3.39 mM) | 1.3 | – | Activity [4]: 53%; Activity [5]: Toxic
COC(=O)C(=C/c1cc(OC)c(OC)c(OC)c1)/C(=C\c1ccccc1)C(N)=O | – | – | – | 0.9 | –
COC(=O)C(/C(=C\c1ccccc1)C(N)=O)=C(\C)c1cc(OC)c(OC)c(OC)c1 | – | – | – | 0.3 | –
COC(=O)C(=C(/C)c1cc(OC)cc(OC)c1)/C(=C\c1ccccc1)C(=O)NN1CC[N+](C)([O-])CC1 | – | – | 0.2 | – | –
